Experiments:
[1] = Toxicity in rat; type: organism-based; conditions: in vivo
[2] = test system: Drosophila melanogaster; experiment: Antiproliferative activity against Drosophila melanogaster Kc167 cells after 48 hrs; type: functional
[3] = test system: Drosophila melanogaster; experiment: Induction of nuclear damage in Drosophila melanogaster Kc167 cells after 6 hrs; type: functional

C/C=C(\C)C(=O)O[C@H]1C[C@@H](OC(C)=O)[C@@]2(C(=O)OC)CO[C@H]3[C@@H](O)[C@@](C)([C@]45O[C@@]4(C)[C@@H]4C[C@H]5O[C@@H]5OC=C[C@@]54O)[C@H]4[C@]1(CO[C@]4(O)C(=O)OC)[C@@H]32 [AZADIRACHTIN A]
LD50 [1]: > 3540 mg/kg
inhibition [2]: Dose-dependent effect
inhibition [3]: Dose-dependent effect

— ChEMBL document CHEMBL1158376, “Azadirachtin, a scientific gold mine” (Bioorg Med Chem, 2009)
